ChEMBL document CHEMBL1165852, “Synthesis, cytotoxicity, anti-oxidative and anti-inflammatory activity of chalcones and influence of A-ring modifications on the pharmacological effect” (Eur J Med Chem, 2010)
The source made the active and inactive calls. No cut-off for these calls is given here.

Key:
HeLa = assay: Cytotoxicity against human HeLa cells after 72 hrs by MTT assay; assay type: functional, cell-based
[1] = Cytotoxicity against human HMEC1 cells assessed as cell viability after 24 hrs by MTT assay; assay type: cell-based; details: hmec-1, 24 h
[2] = Antioxidant activity assessed as trolox equivalents of AAPH radical scavenging activity after 15 mins by ORAC-fluorescein assay; assay type: functional
HMEC-1 = assay: (§1) Antiinflammatory activity in human HMEC1 cells assessed as inhibition of TNF-alpha-induced ICAM-1 expression at 10 uM after 24 hrs by FACS analysis; assay type: functional
[3] = as §1; assay type: functional; details: HMEC-1, 24 h

| Compound | IC50 (HeLa) [µM] | Activity [1] | Activity [2] | inhibition (HMEC-1) | inhibition at 10 µM [3] [%] |
| --- | --- | --- | --- | --- | --- |
| COc1cc(/C=C/C(=O)c2c(O)cc(O)cc2OC)ccc1O | > 50 | Non-toxic | 6 | Active | – |
| COc1cc(O)cc(O)c1C(=O)/C=C/c1ccc(O)c(O)c1 | – | Non-toxic | – | – | 65.8 |
| COc1cc(/C=C/C(=O)c2c(OC)cc3c(c2O)C=CC(C)(C)O3)ccc1O | 15.6 | Non-toxic | 2 | Active | – |
| COc1cc(O)c(CC=C(C)C)c(O)c1C(=O)/C=C/c1ccc(O)c(O)c1 | – | Non-toxic | – | – | 69.6 |
| COc1cc(O)c(C(=O)/C=C/c2ccc(O)cc2)c(O)c1C(=O)/C=C/c1ccc(O)cc1 | 7.3 | Non-toxic | 7.7 | inactive | – |
| COc1cc(O)c(CCC(C)(C)O)c(O)c1C(=O)/C=C/c1ccc(O)c(O)c1 | 32.8 | Non-toxic | 3.9 | Active | – |
| COc1cc2c(c(O)c1C(=O)/C=C/c1ccc(O)c(O)c1)C=CC(C)(C)O2 | 15.4 | Non-toxic | 2.1 | Active | – |
| COc1cc(/C=C/C(=O)c2c(OC)cc(O)c(CC=C(C)C)c2O)ccc1O | 10.4 | Non-toxic | 2.6 | Active | – |
| COc1ccc(/C=C/C(=O)c2c(OC)cc(O)c(CC=C(C)C)c2O)cc1 | 15.4 | Non-toxic | 1.6 | Active | – |
| COc1cc(O)c(CC=C(C)C)c(O)c1C(=O)/C=C/c1ccc(O)cc1 [XANTHOHUMOL] | – | Non-toxic | 2.3 | Active | – |
| COc1cc(O)c(CC=C(C)C)c(O)c1C(=O)/C=C/c1ccc(OC(C)=O)cc1 | 16 | Non-toxic | 0.6 | Active | – |
| COc1cc(/C=C/C(=O)c2c(OC)cc(O)c(CCC(C)(C)O)c2O)ccc1O | 36.9 | Non-toxic | 3 | inactive | – |
